pIC50: −log10 of the molar value.

The subject of this assay is primary rat microglia. Put plainly: Inhibition of microglia activation (Aβ-peptide stimulation, MTS reduction). Type of assay: cell-based. The note with it: Aβ-peptide-activated primary rat microglia, compound added day 5, MTS reduction on day 7, relative to DMSO control. The procedure:
For in vitro production of Aβ-activated microglia, primary rat microglia with synthetic Aβ-peptide are incubated:
For simulation of Aβ deposits, synthetic Aβ peptide is dried on 96-hole tissue culture plates. A peptide stock solution is diluted by 2 mg/ml of H2O 1:50 in H2O. To coat the 96-hole plates, 30 μl of this dilute peptide solution/hole is used, and it is dried overnight at room temperature.
Primary rat microglia are harvested by mixed glia cultures, which were obtained from P3 rat brains. In the production of mixed glia cultures, the brains are taken from 3-day-old rats, and meninges are removed. The isolation of cells is achieved by trypsinization (0.25% trypsin solution, 15 minutes, 37° C.)). After undigested tissue fragments are separated with the aid of a 40 μm nylon mesh, the isolated cells are centrifuged off (800 rpm/10 minutes). The cell pellet is resuspended in the culture medium and moved into 100 ml tissue culture flasks (1 brain/tissue culture flask). […]
To quantify the microglia reactivity, the metabolic activity is measured on cultivation day 7 via the reduction of MTS (3-(4,5-dimethylthiazol-2-yl)-5-(3-carboxymethoxyphenyl)-2-(sulfophenyl)-2H-tetrazolium), Owen's reagent, Baltrop, J. A. et al. Bioorg. & Med. Chem. Lett., 1, 6111 (1991)). […]
(In general: Tetrazolium assays rely on reduction of a dye to a coloured formazan, in cell work by metabolically active cells.)

A word on the pIC50: it is −log10 of the IC50, conventionally taken in molar units. A lower pIC50 goes with a high IC50. `COC(=O)CCCCCOc1ccc2nc(S(=O)(=O)Cc3ccccc3)n(-c3ccc(C)cc3)c2c1` [Example 9, 6-[[1-(4-Methylphenyl)-2-(phenylmethanesulfonyl)-1H-benzimidazol-6-yl]oxy]hexanoic acid methyl ester] gave a pIC50 of 6.34.

Turning to `COC(=O)CCCCCOc1ccc2nc(N3CCOCC3)n(-c3ccccc3)c2c1` [Example 15, 6-[[2-(Morpholin-4-yl)-1-phenyl-1H-benzimidazol-6-yl]oxy]hexanoic acid methyl ester], the pIC50 is 6.06. Against the preceding compound, the pIC50 is 0.28 log units lower.

The record behind these values is patent US6903126B2, “1-Aryl-2-N-, S- or O-substituted benzimidazole derivatives, their use for the production of pharmaceutical agents as well as pharmaceutical preparations that contain these derivatives” (Schering AG, priority 2001, dated 2005).
